Data published in PubChem BioAssay (NCI).
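All cell lines were grown in 96-well plates and treated with compound for 48 hours. At the TGI there is no net growth.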

Experiments:
Assay in all cases: NCI-60 cell line screen, 48 h
786-0 renal = test system: 786-0 renal
BT-549 breast = test system: BT-549 breast
CAKI-1 renal = test system: CAKI-1 renal
CCRF-CEM leukemia = test system: CCRF-CEM leukemia
HS 578T breast = test system: HS 578T breast
M14 melanoma = test system: M14 melanoma
MDA-MB-231 breast = test system: MDA-MB-231 breast
NCI-H522 lung = test system: NCI-H522 lung
RPMI-8226 leukemia = test system: RPMI-8226 leukemia
SN12C renal = test system: SN12C renal
SW-620 colon = test system: SW-620 colon
TK-10 renal = test system: TK-10 renal
UACC-257 melanoma = test system: UACC-257 melanoma
LOX IMVI melanoma = test system: LOX IMVI melanoma
NCI-H226 lung = test system: NCI-H226 lung

| Compound | TGI (786-0 renal) [µM] | TGI (BT-549 breast) [µM] | TGI (CAKI-1 renal) [µM] | TGI (CCRF-CEM leukemia) [µM] | TGI (HS 578T breast) [µM] | TGI (M14 melanoma) [µM] | TGI (MDA-MB-231 breast) [µM] | TGI (NCI-H522 lung) [µM] | TGI (RPMI-8226 leukemia) [µM] | TGI (SN12C renal) [µM] | TGI (SW-620 colon) [µM] | TGI (TK-10 renal) [µM] | TGI (UACC-257 melanoma) [µM] | TGI (LOX IMVI melanoma) [µM] | TGI (NCI-H226 lung) [µM] |
| --- | --- | --- | --- | --- | --- | --- | --- | --- | --- | --- | --- | --- | --- | --- | --- |
| CC(=O)Nc1ccc2cc(C)c(=O)[nH]c2n1 | > 100 | > 100 | > 100 | > 100 | > 100 | > 100 | > 100 | > 100 | > 100 | > 100 | > 100 | > 100 | > 100 |  |  |
| N#CC1(C#N)C2CCCCC23OC(=N)C1(C#N)C(c1ccccc1)O3 (centres undefined) | 33.7 | 34.7 | 24.5 | > 100 | 4.76 | 28.7 | 33.8 |  |  | 26.7 | > 100 | 37.6 | 37.3 | 45.1 | > 100 |
| COc1ccc(N2C(=O)CS(=O)(=O)C2c2cccc(Oc3ccccc3)c2)cc1 (centres undefined) | 21.1 | 54.1 | 19.3 | > 100 | 28.5 | 22.6 | 7.6 | 13.8 |  | 21.4 | > 100 | 8.46 | 10.9 | 29.5 | 52.6 |
| CC(/C=N\NC(=S)N1CCCCC1)=N/NC(=S)N1CCCCC1 | 13.2 | 13.4 | 10.7 |  | 14.7 | 5.51 | 11.1 | 5.68 | > 100 | 10.8 | 14.7 | 11.8 | 15.4 | > 100 | 2.6 |
| CC1(C)OC2C(O)CN3CCS[C@H]3C2O1 (some centres undefined) | > 100 | > 100 | > 100 | > 100 | > 100 | > 100 | > 100 | > 100 | > 100 |  | > 100 | > 100 | > 100 | > 100 | > 100 |
| CCc1nc2ccc(N=NN(C)C)cc2[nH]1 | > 100 | > 100 | > 100 | > 100 | > 100 | > 100 | > 100 | > 100 | > 100 | > 100 | > 100 | > 100 | > 100 |  | > 100 |
| O=C(CCc1cc(O)cc(O)c1)NCCc1cc(O)cc(O)c1 | > 100 | > 100 | > 100 |  | > 100 | > 100 | > 100 | > 100 | > 100 | > 100 | > 100 | > 100 | > 100 | > 100 | > 100 |
| CC(C)(C)C(=O)OC(N)/C=C/c1ccccc1 (centres undefined) | > 100 | > 100 | > 100 | > 100 | > 100 | > 100 | > 100 | > 100 | > 100 | > 100 | > 100 |  | > 100 |  | > 100 |
| COc1ccc(-c2nc(SCC(=O)N/N=C/c3ccc(O)c(OC)c3)[nH]c2-c2ccc(OC)cc2)cc1 | 42 | 44.1 | > 100 | 92.2 |  | 56.6 | 84.5 | 53.8 |  | 41.1 | > 100 | > 100 | 69.5 | 46.7 |  |
| CC12CC(C#N)(C#N)C(C#N)(CO1)C(=N)O2 (centres undefined) | > 100 | > 100 | > 100 | 69.1 | > 100 | > 100 | > 100 |  |  | > 100 | > 100 | > 100 | > 100 | > 100 | > 100 |
| COc1cccc2c1C(=O)c1c(O)c3c(c(O)c1C2=O)C[C@@](O)(C(=O)CO)C[C@@H]3OC1CC(N)C(OC)C(C)O1 (some centres undefined) | 18.2 | 1.47 |  | 0.176 | 1.14 | 0.996 | 7.01 | 0.45 | 0.374 | 0.644 | 4.05 | 36.6 | 1.34 | 0.181 | 0.47 |
| O=[N+]([O-])c1cc2c(c3nonc13)OCCCCO2 | 10.7 |  | 34.3 | 4.98 | 67.7 | 17.9 | 12.1 | 17.4 | 16.3 | 16.1 | 20.7 | 93.7 | 28.9 | 12.6 | 28.2 |
| CCOC(=O)C1=C(N)Oc2ccc(Br)cc2C1C(C#N)C(=O)OCC (centres undefined) | 70.1 |  | > 100 | 44.5 | 61 | > 100 | 55.9 | 34.6 | 41.6 | > 100 | 43.2 | 36.2 | 61.7 | 33.1 | 35.3 |
| CSc1nncc2[nH]c(C)nc12 | > 100 | > 100 | > 100 | > 100 |  | > 100 | > 100 | > 100 | > 100 | > 100 | > 100 | > 100 | > 100 | > 100 | > 100 |
| O=C(c1cc(Cl)cc(Cl)c1)N1CCN(C(=O)c2cc(Cl)cc(Cl)c2)C1=S | 7.58 | 70.8 | 25.2 | 21.4 | > 100 | 27.3 | 31.9 | 25.7 |  | 31.1 | > 50.5 | 23.2 | 28.8 | 11.6 | 49.8 |
| COc1ccc(CCN=C2OCc3ccccc32)cc1OC | > 100 | > 100 | > 100 | > 100 | > 100 |  | > 100 |  |  | > 100 | > 100 | > 100 | > 100 | > 100 | > 100 |
| COC(=O)C1C=CN(N(C)C)C2=C1C(=O)c1c(O)cccc1C2=O (centres undefined) | 11.4 | 3.86 | 5.7 | 5.04 | 7.58 |  | 5.79 | 5.95 | 5.97 | 3.95 | 5.14 | 15 | 2.8 |  | 3.94 |
